These results are taken from US20220152031A1, “PYRIDAZINONES AND METHODS OF USE THEREOF” (Goldfinch Bio, Inc., priority 2019, published 2022).

Each structure is given as a SMILES string. Where two headings read alike, the source gives them in different places.

One data set has as its system murine podocytes. Description: Murine podocytes with protamine sulfate injury. The format is cell-based. As to conditions: pretreated 0.1, 1, 10 uM for 20 minutes, 300 ug/mL protamine sulfate 1 hour. As for the experimental part: Conditionally immortalized murine podocytes were differentiated for 14 days in gamma-interferon-free media[Synaptopodin Is a Coincidence Detector of Tyrosine versus Serine/Threonine Phosphorylation for the Modulation of Rho Protein Crosstalk in Podocytes. Buvall L, Wallentin H, Sieber J, Andreeva S, Choi H Y, Mundel P, Greka A. J Am Soc Nephrol. 2017 March; 28(3):837-851. doi: 10.1681/ASN.2016040414. Epub 2016 Sep. 14.]. Murine podocyte cells were pretreated with 0.1, 1, 10 uM of AO or DMSO for 20 minutes then insulted with 300 ug/mL of protamine sulfate (PS) for 1 hour; 3 technical replicate plates were treated for each condition. Murine cells were washed with 1×DPBS −/−, fixed in 4% PFA+4% sucrose for 10 minutes at room temperature, washed 3 times with 1×DPBS −/−, permeabilized with 0.3% triton, and probed for phalloidin, synaptopodin, and DAPI (Proteasomal degradation of Nck1 but not Nck2 regulates RhoA activation and actin dynamics. Buvall L, Rashmi P, Lopez-Rivera E, Andreeva S, Weins A, Wallentin H, Greka A, Mundel P. Nat Commun. (2013) 4:2863. doi: 10.1038/ncomms3863.). Tiled images were acquired using a Zeiss LSM880 Airyscan super resolution confocal microscope using ZEN 2.3. Manual quantitation of cells with or without collapsed actin cytoskeleton were quantified. […]

In data set [1] the test system is deoxycorticosterone acetate (DOCA)-salt hypertensive rats. Description: Albuminuria in DOCA-salt hypertensive rats. The format is in vivo, Sprague Dawley rats. An excerpt: The aim of this study was to evaluate the effects of the TRCP5 inhibitor, AO, to attenuate the development and/or progression of albuminuria in deoxycorticosterone acetate (DOCA)-salt hypertensive rats.
The DOCA-salt hypertensive rat model is a well-established model of mineralocorticoid hypertension with renal dysfunction, characterized by increase levels of urinary protein and albumin excretion. [Schenk et al., “The pathogenesis of DOCA-salt hypertension,” J. Pharmacol. Toxicol. Methods (May 1992) 27(3):161-170; Gomez-Sanchez et al., “Mineralocorticoids, salt and high blood pressure,” Steroids (1996) 61:184-188.]
Six to seven weeks old Sprague Dawley rats were unilaterally nephrectomized; after one-week recovery, rats were implanted with a DOCA pellet (45 mg) and provided tap water containing 0.9% NaCl and 0.2% KCl (Day 1) for a 3 weeks treatment. On Day 1, DOCA-salt rats received one daily dose, subcutaneously (SC), of AO at 30 mg/kg for 3 weeks; control animals for DOCA treatment were administered vehicle or eplerenone, an aldosterone blocker; sham animals, implanted with a silicone-water pellet, were given tap water and received SC administration of the vehicle. Proteinuria, albuminuria and arterial blood pressure as well as body weight were recorded every week.

Another data set concerns the target T1, TRPC5 (Homo sapiens, UniProt Q9UL62).
T1 construct: expressed in transfected cells
T1 sequence (Q9UL62 1-973): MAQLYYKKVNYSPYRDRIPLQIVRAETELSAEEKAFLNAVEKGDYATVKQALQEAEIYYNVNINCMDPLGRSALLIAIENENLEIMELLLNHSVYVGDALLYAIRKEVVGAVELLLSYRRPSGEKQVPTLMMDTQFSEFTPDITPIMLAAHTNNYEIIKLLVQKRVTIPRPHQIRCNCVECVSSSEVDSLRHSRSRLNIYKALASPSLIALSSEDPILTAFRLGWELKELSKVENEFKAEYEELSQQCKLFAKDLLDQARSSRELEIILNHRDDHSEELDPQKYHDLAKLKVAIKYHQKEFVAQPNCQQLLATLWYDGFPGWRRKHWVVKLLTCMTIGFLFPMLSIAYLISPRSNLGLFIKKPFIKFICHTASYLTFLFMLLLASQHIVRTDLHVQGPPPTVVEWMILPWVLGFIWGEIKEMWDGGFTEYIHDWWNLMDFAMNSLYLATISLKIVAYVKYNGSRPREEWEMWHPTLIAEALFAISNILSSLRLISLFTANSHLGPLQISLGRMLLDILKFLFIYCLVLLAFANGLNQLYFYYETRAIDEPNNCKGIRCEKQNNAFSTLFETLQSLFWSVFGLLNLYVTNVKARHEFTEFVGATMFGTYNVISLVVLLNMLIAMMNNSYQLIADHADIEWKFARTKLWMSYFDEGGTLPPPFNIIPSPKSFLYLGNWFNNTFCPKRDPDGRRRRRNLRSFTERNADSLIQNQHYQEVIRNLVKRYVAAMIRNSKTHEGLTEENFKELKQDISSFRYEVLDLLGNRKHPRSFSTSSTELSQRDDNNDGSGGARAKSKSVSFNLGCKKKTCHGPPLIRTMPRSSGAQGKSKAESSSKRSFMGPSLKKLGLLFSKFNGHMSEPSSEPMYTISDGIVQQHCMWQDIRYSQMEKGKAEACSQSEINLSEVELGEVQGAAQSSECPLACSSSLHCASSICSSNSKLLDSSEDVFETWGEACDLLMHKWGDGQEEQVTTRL
Description: Automated patch clamp assay, HEK293 cells overexpressing TRPC5, current block after rosiglitazone stimulation. To be noted: whole cell automated patch. The format is cell-based. (In general: In patch-clamp work, channel activity is measured electrically.)

Where [2] appears, read: DOCA-AO compared to sham animals, week 1 to 3.
The mark [3] stands for this setting: DOCA-salt treatment followed by AO.

For the compound `O=C1CN(c2cn[nH]c(=O)c2Cl)CCN1Cc1ccccc1C(F)(F)F` [AO], the “murine cells protected from cytoskeletal collapse induced by protamine sulfate” value with murine podocytes is recorded as approximately 20%. In addition, in data set [1] (30 mg/kg SC daily, week 1 to week 3, vs DOCA-vehicle control rats, significance at week 3 (p value 0.0011)), the urinary albumin excretion result is “attenuated”. Besides, the adverse effects result in data set [1] (30 mg/kg SC once daily for 3 weeks) is listed as “No adverse effects were observed”. Besides, the body weight entry in data set [1] (DOCA vs DOCA-AO, 30 mg/kg SC once daily for 3 weeks) is listed as “no significant difference”. For the same compound, in data set [1] (setting [2]), the “diastolic BP” value is recorded as “elevated”, the “mean arterial blood pressure (BP)” value was “elevated” and the “systolic BP” value is on record as “elevated”. Besides, in data set [1] (setting [3]), the “urine volume produced per day” value is “elevated” and the water intake result is “elevated”. Further, the IC50 on TRPC5 (80 mV, read-out: TRPC5_QP_XC50_80) lay in the range of 0.01 to 1000 nM. Moreover, the IC50 on TRPC5 (100 mV, read-out: TRPC5_QP_X50_100) lay in the range of 0.01 to 1000 nM.
